ChEMBL document CHEMBL5356980, “Linker optimization and activity validation of a cell surface vimentin targeted homo-dimeric peptoid antagonist for lung cancer stem cells” (Bioorg Med Chem, 2024)
The source made the active and inactive calls. The calls are words filed in the database; no cut-off is given here.

What was measured:
[1] = test system: NCI-H1299; experiment: Antiproliferative activity against human NCI-H1299 cells assessed as reduction in cell viability incubated for 4 days by MTS assay; format: functional, cell-based; conditions: for Activity: dose 1000-100000 nM, time 4.0 day
[2] = test system: NCI-H460; experiment: Inhibition of colony formation in human NCI-H460 cells at 20 uM incubated for 8 days by crystal violet staining based analysis; format: functional, cell-based; conditions: time 8.0 day
[3] = target: Vimentin (Homo sapiens, UniProt P08670); experiment: Binding affinity to his-tagged recombinant Vimentin (unknown origin) assessed as dissociation constant by ELISA analysis
Vimentin, sequence (P08670 whole entry): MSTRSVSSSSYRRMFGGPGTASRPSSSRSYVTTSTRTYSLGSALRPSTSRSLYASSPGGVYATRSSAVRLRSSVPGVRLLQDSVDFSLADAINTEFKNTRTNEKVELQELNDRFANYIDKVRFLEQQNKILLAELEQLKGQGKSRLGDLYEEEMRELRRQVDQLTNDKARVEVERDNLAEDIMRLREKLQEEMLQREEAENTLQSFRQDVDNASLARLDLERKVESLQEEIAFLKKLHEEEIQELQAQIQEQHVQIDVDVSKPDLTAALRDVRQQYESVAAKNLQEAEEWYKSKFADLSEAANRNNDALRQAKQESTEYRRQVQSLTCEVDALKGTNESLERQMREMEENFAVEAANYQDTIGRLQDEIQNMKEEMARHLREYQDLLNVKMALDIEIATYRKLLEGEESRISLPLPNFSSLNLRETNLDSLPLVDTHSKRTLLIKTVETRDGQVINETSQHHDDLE

SMILES | Activity [1] | other results
COCCN(CC(=O)N[C@H](CCCCN)C(=O)N[C@H](CCSC)C(=O)NCC(=O)NCCCCC(NC(=O)COCCOCCNC(=O)CNC(=O)[C@@H](CCSC)NC(=O)[C@@H](CCCCN)NC(=O)CN(CCOC)C(=O)CN(Cc1ccc2c(c1)OCO2)C(=O)CN(CC(C)C)C(=O)CN(CCCCN)C(=O)CN(CCCCN)C(=O)CN(CC(C)C)C(=O)CNc1ccc(C(=O)c2ccccc2)cc1)C(N)=O)C(=O)CN(Cc1ccc2c(c1)OCO2)C(=O)CN(CC(C)C)C(=O)CN(CCCCN)C(=O)CN(CCCCN)C(=O)CN(CC(C)C)C(=O)CNc1ccc(C(=O)c2ccccc2)cc1 (stereo partly specified) | Dose-Dependent Effect | 
COCCN(CC(=O)N[C@H](CCCCN)C(=O)N[C@H](CCSC)C(=O)NCC(=O)NCC(=O)NCCCCC(NC(=O)CNC(=O)CNC(=O)[C@@H](CCSC)NC(=O)[C@@H](CCCCN)NC(=O)CN(CCOC)C(=O)CN(Cc1ccc2c(c1)OCO2)C(=O)CN(CC(C)C)C(=O)CN(CCCCN)C(=O)CN(CCCCN)C(=O)CN(CC(C)C)C(=O)CNc1ccc(C(=O)c2ccccc2)cc1)C(N)=O)C(=O)CN(Cc1ccc2c(c1)OCO2)C(=O)CN(CC(C)C)C(=O)CN(CCCCN)C(=O)CN(CCCCN)C(=O)CN(CC(C)C)C(=O)CNc1ccc(C(=O)c2ccccc2)cc1 (stereo partly specified) | Dose-Dependent Effect | 
COCCN(CC(=O)N[C@H](CCCCN)C(=O)N[C@H](CCSC)C(=O)NCC(=O)NCCCCC(NC(=O)CNC(=O)[C@@H](CCSC)NC(=O)[C@@H](CCCCN)NC(=O)CN(CCOC)C(=O)CN(Cc1ccc2c(c1)OCO2)C(=O)CN(CC(C)C)C(=O)CN(CCCCN)C(=O)CN(CCCCN)C(=O)CN(CC(C)C)C(=O)CNc1ccc(C(=O)c2ccccc2)cc1)C(N)=O)C(=O)CN(Cc1ccc2c(c1)OCO2)C(=O)CN(CC(C)C)C(=O)CN(CCCCN)C(=O)CN(CCCCN)C(=O)CN(CC(C)C)C(=O)CNc1ccc(C(=O)c2ccccc2)cc1 (stereo partly specified) | Dose-Dependent Effect | IC50 ([1]; NCI-H1299, 96 h): 6 µM
COCCN(CC(=O)N[C@H](CCCCN)C(=O)N[C@H](CCSC)C(=O)NCCOCCOCC(=O)NCCOCCOCC(=O)NCCCCC(NC(=O)COCCOCCNC(=O)COCCOCCNC(=O)[C@@H](CCSC)NC(=O)[C@@H](CCCCN)NC(=O)CN(CCOC)C(=O)CN(Cc1ccc2c(c1)OCO2)C(=O)CN(CC(C)C)C(=O)CN(CCCCN)C(=O)CN(CCCCN)C(=O)CN(CC(C)C)C(=O)CNc1ccc(C(=O)c2ccccc2)cc1)C(N)=O)C(=O)CN(Cc1ccc2c(c1)OCO2)C(=O)CN(CC(C)C)C(=O)CN(CCCCN)C(=O)CN(CCCCN)C(=O)CN(CC(C)C)C(=O)CNc1ccc(C(=O)c2ccccc2)cc1 (stereo partly specified) | Dose-Dependent Effect | 
COCCN(CC(=O)N[C@H](CCCCN)C(=O)N[C@H](CCSC)C(=O)NCCCCC(NC(=O)[C@@H](CCSC)NC(=O)[C@@H](CCCCN)NC(=O)CN(CCOC)C(=O)CN(Cc1ccc2c(c1)OCO2)C(=O)CN(CC(C)C)C(=O)CN(CCCCN)C(=O)CN(CCCCN)C(=O)CN(CC(C)C)C(=O)CNc1ccc(C(=O)c2ccccc2)cc1)C(N)=O)C(=O)CN(Cc1ccc2c(c1)OCO2)C(=O)CN(CC(C)C)C(=O)CN(CCCCN)C(=O)CN(CCCCN)C(=O)CN(CC(C)C)C(=O)CNc1ccc(C(=O)c2ccccc2)cc1 (stereo partly specified) | Dose-Dependent Effect | inhibition [2]: Active; Kd [3]: 1 µM
COCCN(CC(=O)N[C@H](CCCCN)C(=O)N[C@H](CCSC)C(=O)NCCCCC(NC(=O)CNC(=O)[C@@H](CCSC)NC(=O)[C@@H](CCCCN)NC(=O)CN(CCOC)C(=O)CN(Cc1ccc2c(c1)OCO2)C(=O)CN(CC(C)C)C(=O)CN(CCCCN)C(=O)CN(CCCCN)C(=O)CN(CC(C)C)C(=O)CNc1ccc(C(=O)c2ccccc2)cc1)C(N)=O)C(=O)CN(Cc1ccc2c(c1)OCO2)C(=O)CN(CC(C)C)C(=O)CN(CCCCN)C(=O)CN(CCCCN)C(=O)CN(CC(C)C)C(=O)CNc1ccc(C(=O)c2ccccc2)cc1 (stereo partly specified) | Dose-Dependent Effect | 
COCCN(CC(=O)N[C@H](CCCCN)C(=O)N[C@H](CCSC)C(=O)NCCOCCOCC(=O)NCCCCC(NC(=O)COCCOCCNC(=O)[C@@H](CCSC)NC(=O)[C@@H](CCCCN)NC(=O)CN(CCOC)C(=O)CN(Cc1ccc2c(c1)OCO2)C(=O)CN(CC(C)C)C(=O)CN(CCCCN)C(=O)CN(CCCCN)C(=O)CN(CC(C)C)C(=O)CNc1ccc(C(=O)c2ccccc2)cc1)C(N)=O)C(=O)CN(Cc1ccc2c(c1)OCO2)C(=O)CN(CC(C)C)C(=O)CN(CCCCN)C(=O)CN(CCCCN)C(=O)CN(CC(C)C)C(=O)CNc1ccc(C(=O)c2ccccc2)cc1 (stereo partly specified) | Dose-Dependent Effect | 
COCCN(CC(=O)N[C@H](CCCCN)C(=O)N[C@H](CCSC)C(=O)NCC(=O)NCCCCC(NC(=O)CNC(=O)CNC(=O)[C@@H](CCSC)NC(=O)[C@@H](CCCCN)NC(=O)CN(CCOC)C(=O)CN(Cc1ccc2c(c1)OCO2)C(=O)CN(CC(C)C)C(=O)CN(CCCCN)C(=O)CN(CCCCN)C(=O)CN(CC(C)C)C(=O)CNc1ccc(C(=O)c2ccccc2)cc1)C(N)=O)C(=O)CN(Cc1ccc2c(c1)OCO2)C(=O)CN(CC(C)C)C(=O)CN(CCCCN)C(=O)CN(CCCCN)C(=O)CN(CC(C)C)C(=O)CNc1ccc(C(=O)c2ccccc2)cc1 (stereo partly specified) | Dose-Dependent Effect | 
